The subject of one assay is C57bl6 mice. The experiment in a line: DSS intestinal fibrosis study: inflammation level by histology (May-Grunwald-Giemsa). It counts as in vivo. The following applies: colon, MGG staining; DSS vehicle 3.77±0.80, control 0.50±0.33. The protocol: Rings of the transverse part of the colon were sampled (post mortem) and fixed in 4% formaldehyde and embedded in paraffin for histological analysis. Sections (4 μm) were stained with May-Grunwald-Giemsa and a multiparametric histological scoring (0 to 18) was performed blindly by two investigators. This staining allowed the quantification of inflammation. Histological grades, reflecting the inflammation level, were assigned based on the intensity of cellular infiltrate in the mucosa, its extension in sub-mucosa layers and the presence of epithelial lesions (see Table 5).

A further assay deals with CTGF. Description: DSS intestinal fibrosis study: Western blot of colon, CTGF. It counts as in vivo, mice. The following applies: whole colon, OD normalized with GAPDH, expressed as percentage of control groups; DSS 115.1 ± 16.88; listed as GED. As for the experimental part:
(§1) For the Western blot analysis, 0.5 cm of frozen colonic samples were homogenized in RIPA Buffer containing 50 mM Tris HCl pH 7.6, 150 mM NaCl, 1.5 mM MgCl2, 5 mM EDTA, 1% Triton-X and 10% Glycerol, supplemented with 100 mM Sodium Fluoride (NaF), 2 mM Sodium Orthovanadate (Na3VO4), 10 mM Sodium Pyrophosphate (NaPPi), 1 mM phenylmethanesulphone (PMSF) and a classical protease-inhibitor cocktail containing 10 μg/mL Leupeptin and Aprotinin.
(§2) For each sample, 30 μg of protein was separated by PAGE and electroblotted. Nitrocellulose membranes (100% pure) were incubated (according with a specific protocol for each antibody) with primary antibodies directed against CTGF, Collagen-I and GAPDH (purchased from Abcam, Cambridge, UK; 1:1000 for 2 h at RT), diluted in 5% non-fat milk in 0.1% TBS-t. […] Optical density of target bands was determined using a computer-assisted densitometer and the ImageJ public domain software (W. S., Rasband, ImageJ, U. S. National Institutes of Health, Bethesda, MD; http://rsb.info.nih.gov/ij/, 1997-2011). Tissue levels were expressed as units of Optical Density (OD) per quantity of total proteins, normalized with internal control GAPDH and the results were expressed as percentage of control groups.
For orientation: A western blot detects proteins with antibodies after separation by electrophoresis.

Another assay relates to TGF-β1. The experiment in a line: DSS intestinal fibrosis study: Western blot of colon, TGF-β1. Type of assay: in vivo, mice. The following applies: whole colon, OD normalized with GAPDH, expressed as percentage of control groups; DSS 153.6 ± 26.25. The protocol: as §1, §2
The test system of another assay is C57BL/6 mice. The experiment in a line: DSS chronic colitis (Ex. 7): macroscopic colonic findings. It counts as in vivo. As for the experimental part:
Finally, seven days after the last DSS cycle administration, the animals of each group were sacrificed by cervical dislocation under deep CO2 anaesthesia and undergone to laparotomy. The colon were visualized and rapidly excised. The length of the whole colon-rectum and the weight of the distal 8 cm of colon-rectum were measured.
The macroscopic colonic lesions including dilation, thickness and stenosis were scored by an independent observer, unaware of the mice treatment. Tissue specimens from the colon were dissected and immediately frozen or fixed in fresh 4% formaldehyde (FA)/PBS solution for 3 h at room temperature followed by the standard procedure for paraffin embedding. Paraffin embedded tissues transversally sectioned at 3 μm were subject to Hematoxylin/Eosin staining, to assess the inflammatory degree, and Masson trichrome to better assess connective tissue and fibrosis. The stained sections were then blindly observed under an Olympus BX51 Light Microscope (Olympus, Optical Co. Ltd., Tokyo, Japan) by two pathologists which have performed the histological score evaluating: i. presence of ulcers (0=absent, 1=little ulcers, 2=big ulcers); ii. the inflammatory degree (0=absent 1=mild, 2=moderate and 3=severe); iii. depth of lesions (0=absent, 1=lesions extending in the submucosa, 2=lesions in the muscolarispropria and 3=lesions in the serosa); iv. degree of fibrosis (0=absent 1=mild, 2=moderate and 3=severe). The degree of intestinal inflammation was assessed according to the density and extent of chronic inflammatory infiltrate, loss of goblet cells, and bowel wall thickening. A total microscopic score will be obtained as sum of all scores (maximum score possible=[…]).
At no stage frank rectal bleeding or rectal prolapse were observed. The mice were sacrificed on day 15 and day 30, respectively, and the colon was subjected to macroscopic evaluation by measuring of colon weight (referred to the last 8 cm of the distal large bowel) and colon length and by observing the presence of adhesions, strictures, dilatation, thickness that was scored as 0 if absent; 1 if mild or moderate; and 2 if severe. The total macroscopic score was calculated as sum of all these score.

Assay [1] deals with main markers of fibrosis (Collagen I-III, α-SMA, TGF-β1, Smad3, CTGF). The experiment in a line: DSS chronic colitis (Ex. 7): immunohistochemistry of colon. Type of assay: in vivo, mice. The settings on record: DSS+GED vs DSS, listed as GED. The protocol:
Tissue specimens from the colon, dissected and fixed in fresh 4% formaldehyde (FA)/PBS solution for 3 hours at room temperature, were dehydrated in a graded ethanol series, and embedded in low-temperature-fusion paraffin. 3-μm-thick sections were incubated in a solution of methanol and 3% hydrogen peroxide for 45 min.
Samples were incubated overnight with specific antibodies against α-smooth muscle actin (α-SMA, Abcam), collagen types I-III (Abcam), TGF-β1 (Abcam), connective tissue growth factor (CTGF) (Abcam), pSmad3 and Smad3 (Cell Signaling), Smad7 (Imgenex) PPARγ (Cell Signaling). The samples were washed 5 min with PBS and incubated with streptavidin-biotin-peroxidase conjugated secondary antibody (Dako LSAB Corporation, cod K0675, Dako-Cytomation, Milano). After one wash in PBS for 10 min the sections are subject to incubation with 3,3-diaminobenzidine-tetrahydrochloride for 1-3 min. The counterstaining of nuclei was obtained by Hematoxilin Eosin. The specificity of immune reaction was effected keeping off the primary antibodies. Finally the samples were stained with hematoxylin of Mayer and observed under the Olympus BX51 Light Microscope (Olympus, Optical Co. Ltd., Tokyo, Japan).

[2] abbreviates: chronic DSS colitis, GED 30 mg/kg oral daily, mean ± SEM.

Entries after “also recorded” stand apart in the source; their conditions may differ.

Take `COC(Cc1ccc(N)cc1)C(=O)O` (racemic) [Compound 34, (±)-2-methoxy-3-(4′-aminophenyl) propionic acid]: the “inflammation level, histological score (0 to 18)” value with C57bl6 mice is listed as 2.18±0.48. Further, the “CTGF (Western blot)” value in the assay with CTGF stood at 55.75±17.53. Further, in the assay with TGF-β1, the “TGF-β1 (Western blot)” value stood at 130.5 ± 28.02. Also, the “reduction respect to the profibrotic effect of DSS (colon ratio weight/size)” value in the assay with C57BL/6 mice (Ex. 7, GED 30 mg/kg oral daily) amounted to 26%. Also, the “ratio weight/size of the colon” value in the assay with C57BL/6 mice (Ex. 7, GED 30 mg/kg oral daily, DSS 44.98±6.31, control 20.11±3.91) is given as 38.13±7.82. In addition, in the assay with C57BL/6 mice (setting [2]), the “Adhesions (score 0-2)” value is on record as 0.12 ± 0.1^¥¥, the Colon length is 7.092 ± 0.16**/ ^, the “Colon weight/body weight ratio” value was 0.27 ± 0.012**/^¥¥ and the “Dilation (score 0-2)” value is given as 1.12 ± 0.185**/^¥¥. In the assay with C57BL/6 mice (setting [2]), the “Stenosis (score 0-2)” value is reported as 0.32 ± 0.114**/^¥ and the “Thickness (score 0-2)” value is listed as 0.48 ± 0.108**/^¥. Also, the Total macroscopic score in the assay with C57BL/6 mice (chronic DSS colitis, GED 30 mg/kg oral daily, mean ± SEM, DSS 3.112 ± 0.31) was 2.02 ± 0.26**/^¥¥. Besides, in the assay with C57BL/6 mice (distal 8 cm of colon-rectum, chronic DSS colitis, GED 30 mg/kg oral daily, mean ± SEM), the Colon weight was 0.269 ± 0.007 ^. Moreover, the “Collagen I-III and α-SMA (immunohistochemistry)” value in assay [1] (FIG. 13A, 13B) is “marked reduction; also recorded: significant reduction”. Also, the “TGF-β1, Smad, CTGF (immunohistochemistry)” value in assay [1] (FIG. 15 / data not shown) is reported as “marked reduction; also recorded: significant reduction”.

(Values after patent US12291494B2, “Methods of treating fibrosis” (Nogra Pharma Limited, priority 2012, dated 2025).)
